Experimental data taken from patent US10206906B2, “Synergistic combination of a phenolic-rich maple syrup extract and an antibiotic” (priority 2015, dated 2019).
In brackets after ≈: the same amount, converted by molar mass. Where two headings read alike, the source gives them in different places.

Experiments:
E. coli CFT073 [1] = test: Determination of minimum inhibitory concentration (MIC); type: cell-based; settings: Escherichia coli
Procedure: (§1) A range of concentration of antibiotics, ciprofloxacin (0.0003-0.25 μg mL^−1) and carbenicillin (0.5-512 μg mL^−1), are chosen due to their known potency against all four bacterial strains. Dilutions are prepared in flat bottom, 96 well microtitre plates (Falcon™, Corning™, Fisher Scientific, ON, Canada). Each well of a microtitre plate is then inoculated with the desired bacterial strain (grown in MHB-II and diluted to […]) and the plate is incubated at 37° C. for 18 h under static conditions. Bacterial growth is assessed by (i) monitoring the optical density of the cell suspension in each well at 600 nm (OD600 nm), and (ii) the resazurin microtitre plate assay. In the resazurin microtitre plate assay, each well of a microtitre plate is supplemented with 20 μM resazurin, incubated in the dark for 20 min at room temperature, followed by fluorescence measurements at ex/em 570/590 nm using a TECAN Infinite M200 Pro microplate reader (Tecan Group Ltd., Switzerland). The lowest concentration of a compound able to prevent increase in OD600 nm and resazurin fluorescence intensity is recorded as the MIC for that compound.

P. aeruginosa PA14 [2] = test: as above; type: cell-based; settings: Pseudomonas aeruginosa
Procedure: as §1

P. aeruginosa PAO1 [3] = test: as above; type: cell-based; settings: Pseudomonas aeruginosa
Procedure: as §1

P. mirabilis HI4320 [4] = test: as above; type: cell-based; settings: Proteus mirabilis
Procedure: as §1

E. coli CFT073 [5] = test: Checkerboard microdilution assay (growth inhibition synergy); type: cell-based, Escherichia coli
Procedure: (§2) The checkerboard microdilution assay is used for evaluation of in vitro antimicrobial synergy between two compounds (i.e., antibiotic/PRMSE, antibiotic/pure phenolic compound, and pure phenolic compounds with each other). Two-fold serial dilutions are prepared in MHB-II for each of the two compounds under study. The serial dilutions are then loaded into 96 well plates to achieve combinations having different concentrations of each of the two compounds. Each well is subsequently inoculated with 10^6 CFU mL^−1 of the desired bacterial strain and incubated at 37° C. for 18 h under static conditions. The Fractional Inhibitory Concentration Index (FICI) for each combination is calculated by using the following formula: FICcomponent 1=MICcomponent 1, in combination/MICcomponent 1,alone FICI=FICcomponent 1+FICcomponent 2
(§3) The FICIs are interpreted as follows: FICI of […] (synergy); 0.5<FICI ≤1 (no interaction/indifference); FICI of >4 (antagonism).

P. mirabilis HI4320 [6] = test: as above; type: cell-based, Proteus mirabilis
Procedure: as §2, §3

P. aeruginosa PA14 [7] = test: as above; type: cell-based, Pseudomonas aeruginosa
Procedure: as §2, §3

P. aeruginosa PAO1 [8] = test: as above; type: cell-based, Pseudomonas aeruginosa
Procedure: as §2, §3

G. mellonella larvae = G. mellonella larvae survival after injection of extract or antibiotic alone; type: in vivo, Galleria mellonella; settings: injected alone; PRMSE 12.5 mg/mL, ciprofloxacin 0.03 μg/mL; within 72 h
Procedure: Each data set is representative of experiments with five larvae per condition in triplicate.
G. mellonella infection assay is performed as described previously with some modification (Jander et al., 2000, J Bacteriol., 182: 3843-3845). Briefly, PA14 culture grown overnight in TSB broth is diluted 1:100 in the same growth medium and further grown to OD600 nm of 1.27 at 37° C. under 100 rpm shaking. Freshly grown culture is centrifuged, and pellets are washed and resuspended in 10 mM MgSO4 to an OD600 of 0.1. […] Ampicillin is used to prevent infection by bacterial contaminants on the surface of the larvae at a final concentration of approximately 5 ng per larva during survival phase. G. mellonella larvae are injected with 5 μL aliquot of each treatment solution using prewashed Hamilton syringe. Five larvae are injected per each treatment and the assay is performed in triplicate. […] All injected larvae are incubated in Petri plates at 28° C. under the dark condition, and the number of dead larvae is scored daily after infection. […] A mock inoculation using prewashed Hamilton syringe is also performed in each experiment to monitor the killing due to physical injury or infection by pathogenic contaminants. […]

[9] = test system: P. aeruginosa PA14 infection; test: Galleria mellonella larvae (wax moth) infection assay; type: in vivo; settings: monotherapy at sub-MIC (PRMSE 12.5 mg/mL, ciprofloxacin 0.03 μg/mL)
Procedure: Each data set represents one experiment with five larvae per condition in triplicate, the experiment repeated twice (*P<0.05, Mantel-cox test, n=6).
Briefly, PA14 culture grown overnight in TSB broth is diluted 1:100 in the same growth medium and further grown to OD600 nm of 1.27 at 37° C. under 100 rpm shaking. Freshly grown culture is centrifuged, and pellets are washed and resuspended in 10 mM MgSO4 to an OD600 of 0.1. To prepare the lethal dose of P. aeruginosa PA14 culture serial 10-fold dilutions are made in 10 mM MgSO4 supplemented with 1 mg/mL of ampicillin (adjusted to about 1-10^3 bacterial cells in 5 μL of suspension) containing or not containing PRMSE, without and with ciprofloxacin at sub-MICs. Ampicillin is used to prevent infection by bacterial contaminants on the surface of the larvae at a final concentration of approximately 5 ng per larva during survival phase. G. mellonella larvae are injected with 5 μL aliquot of each treatment solution using prewashed Hamilton syringe. Five larvae are injected per each treatment and the assay is performed in triplicate. PRMSE and ciprofloxacin at sub-MICs are assessed individually to monitor adverse effect on larvae survival. […] All injected larvae are incubated in Petri plates at 28° C. under the dark condition, and the number of dead larvae is scored daily after infection. […]

P. aeruginosa PA14 lawn = test: In vitro analysis of hemolymph recovered from treated G. mellonella larvae; set-up: species or system Galleria mellonella; settings: hemolymph recovered 3 h post-injection, spotted on PA14 lawn, 24 h at 37° C.
Procedure: Larvae were injected with PRMSE (mg/mL) or Cip (μg/mL) alone and in combination, and hemolymph recovered 3 h after treatment were spotted on Pseudomonas isolation agar plates previously inoculated with PA14 cells to produce a lawn of confluent growth. The plate was observed after 24 h of incubation at 37° C. The experiment was performed with three larvae per each condition in triplicate. S-control: saline control.
To rule out any growth-inhibitory effect of PRMSE on PA14 cells due to induction of the immune response, production of antimicrobial peptides or transformation of the extract into a toxic compound(s) in the larval hemolymph, an additional set of larvae are injected with 5 μL of PRMSE without and with ciprofloxacin (sub-MICs) or saline solution as a control. The larval hemolymph is recovered at 3 h after the treatment and 5 μL aliquot of each larval hemolymph sample is spotted on the Pseudomonas isolation agar (BD-Difco) plates previously inoculated with PA14 cells to produce a lawn of confluent growth. The appearance of growth inhibition halos is verified after 24 h of incubation at 37° C.

D. melanogaster flies = test: D. melanogaster survival when fed extract or antibiotic individually; type: in vivo, Drosophila melanogaster; settings: PRMSE 6.25 mg/mL, ciprofloxacin 0.015 μg/mL, within 264 h
Procedure: As well, antibiotic ciprofloxacin is analyzed in combination with PRMSE for its synergistic anti-infective interactions. Fruit flies (D. melanogaster) are infected orally in fly feeding assay as before (Lutter et al., 2008, Infect Immun., 76: 1877-1888), with some modifications. Briefly, flies are anesthetized under a gentle stream of carbon dioxide. Male flies (3- to 5-days-old) are starved of food and water for 5-6 h and separated into vials (10 per vial) containing 5 ml of 5% sucrose agar (sterile) without and with phenolic extract without and with antibiotic at sub-MICs and 2.3-cm filter paper disks (sterile) containing freshly grown bacterial culture suspension. To achieve this freshly grown culture, an overnight P. aeruginosa PA14 culture is inoculated in 6 mL TSB culture and incubated at 37° C. and 100 rpm until OD600=3.0. This culture is centrifuged at 12,000×g for 1 min and the resulting pellet resuspended in 150 μL of sterile 5% sucrose, without and with sub-MICs of phenolic extract or antibiotic. […] Post-infection mortality of flies is monitored daily for 14 days, with each treatment tested twice in duplicate.

[10] = test system: P. aeruginosa PA14 infection; test: Drosophila melanogaster (fruit fly) feeding infection assay; type: in vivo; settings: monotherapy at sub-MIC (PRMSE 6.25 mg mL^−1, ciprofloxacin 0.015 μg mL^−1)
Procedure: Mortality was scored daily for 14 days. […] Results represent measurements from experiments performed with duplicates, twice (*p<0.01, Log-rank Mantel-cox test).
In this infection assay, PRMSE was analyzed for its anti-infective activity. As well, antibiotic ciprofloxacin is analyzed in combination with PRMSE for its synergistic anti-infective interactions. Fruit flies (D. melanogaster) are infected orally in fly feeding assay as before (Lutter et al., 2008, Infect Immun., 76: 1877-1888), with some modifications. Briefly, flies are anesthetized under a gentle stream of carbon dioxide. Male flies (3- to 5-days-old) are starved of food and water for 5-6 h and separated into vials (10 per vial) containing 5 ml of 5% sucrose agar (sterile) without and with phenolic extract without and with antibiotic at sub-MICs and 2.3-cm filter paper disks (sterile) containing freshly grown bacterial culture suspension. To achieve this freshly grown culture, an overnight P. aeruginosa PA14 culture is inoculated in 6 mL TSB culture and incubated at 37° C. and 100 rpm until OD600=3.0. This culture is centrifuged at 12,000×g for 1 min and the resulting pellet resuspended in 150 μL of sterile 5% sucrose, without and with sub-MICs of phenolic extract or antibiotic. […] Post-infection mortality of flies is monitored daily for 14 days, with each treatment tested twice in duplicate.

P. aeruginosa PA14 [11] = test: Survival of PA14 on sucrose filters during fly feeding assay; type: cell-based, Pseudomonas aeruginosa; settings: PRMSE 6.25 mg mL-1, ciprofloxacin 0.015 μg mL-1, mono- and combination; six days
Procedure: Total viable bacterial counts per filter were determined every second day for filters containing bacterial cells on sucrose agar. PA14 cells on filter were untreated or treated with PRMSE (6.25 mg mL-1) or ciprofloxacin (0.015 μg mL-1) alone and in combination. Average data represent data from experiment performed in triplicate and error bars represent S.D.
To address this possibility, the survival of PA14 on the paper discs without and with sub-MICs of PRMSE or antibiotic under the same conditions as the fly feeding assay is analyzed. Enumeration of viable bacteria on filters during the infection period is performed using separate test vials with different treatments inoculated with P. aeruginosa PA14 and inoculated control sucrose vials that are sampled on alternative days, up to 6 days during infection period. Briefly, filters from the test vials are removed in a sterile environment, placed in 50 mL polypropylene tube containing 5 mL of LB broth and vortexed for 30 s. This LB medium containing the sampled bacterial cells is serially diluted in phosphate buffer saline solution (pH 7.4), and 30 μL is plated onto Pseudomonas isolation agar (BD-Difco). Colonies are enumerated after the incubation at 37° C. for 24 h.

[12] = test system: E. coli CFT073, P. mirabilis HI4320, P. aeruginosa PAO1 and PA14; test: Checkerboard microdilution assay, summary over the four strains; type: cell-based; settings: labelled constituent + gallic acid; range over the four strains
Procedure: as §2, §3

[13] = ciprofloxacin/PRMSE combination, FIC of the labelled component
[14] = ciprofloxacin in combination with the labelled phenolic constituent
[15] = labelled constituent + catechaldehyde, * = synergistic
[16] = labelled constituent + catechol, * = synergistic
[17] = labelled constituent + gallic acid, * = synergistic
[18] = labelled constituent combined with catechaldehyde
[19] = labelled constituent combined with catechol
[20] = labelled constituent combined with gallic acid
[21] = labelled phenolic constituent + ciprofloxacin, * = synergistic interaction
[22] = labelled phenolic constituent in combination with ciprofloxacin

O=C(O)c1cn(C2CC2)c2cc(N3CCNCC3)c(F)cc2c1=O [ciprofloxacin, reference compound]
MIC (E. coli CFT073 [1]; CFT073, antibiotic alone, MHB-II, 37° C., 18 h, read-out: MIC): 0.008 µg/mL (≈ 2.41e-05 mM) | MIC (P. aeruginosa PA14 [2]; PA14, antibiotic alone, MHB-II, 37° C., 18 h, read-out: MIC): 0.06 µg/mL (≈ 0.000181 mM) | MIC (P. aeruginosa PAO1 [3]; PAO1, antibiotic alone, MHB-II, 37° C., 18 h, read-out: MIC): 1 µg/mL (≈ 0.00302 mM) | MIC (P. mirabilis HI4320 [4]; HI4320, antibiotic alone, MHB-II, 37° C., 18 h, read-out: MIC): 0.016 µg/mL (≈ 4.83e-05 mM) | FIC (Fractional Inhibitory Concentration) (E. coli CFT073 [5]; [13]): 0.25 | FIC (Fractional Inhibitory Concentration) (P. mirabilis HI4320 [6]; [13]): 0.02 | FIC (Fractional Inhibitory Concentration) (P. aeruginosa PA14 [7]; [13]): 0.03 | FIC (Fractional Inhibitory Concentration) (P. aeruginosa PAO1 [8]; [13]): 0.03 | killing effect on G. mellonella larvae (G. mellonella larvae): no killing effect | protection of G. mellonella larvae against PA14 infection [9]: fails to protect | effect of recovered larval hemolymph on PA14 growth in vitro (P. aeruginosa PA14 lawn): no effect | killing effect on D. melanogaster flies (D. melanogaster flies): no killing effect | protection of D. melanogaster against PA14 infection [10]: fails to protect | culturability of PA14 cells on filter paper discs (P. aeruginosa PA14 [11]): no significant difference

COc1cc(C=O)cc(OC)c1O [syringaldehyde]
MIC (E. coli CFT073 [1]; CFT073, 18 h): 5000 µg/mL (≈ 27.4 mM) | MIC (P. aeruginosa PA14 [2]; PA14, 18 h): 5000 µg/mL (≈ 27.4 mM) | MIC (P. aeruginosa PAO1 [3]; PAO1, 18 h): 5000 µg/mL (≈ 27.4 mM) | MIC (P. mirabilis HI4320 [4]; HI4320, 18 h): 5000 µg/mL (≈ 27.4 mM) | FIC of ciprofloxacin (E. coli CFT073 [5]; [14]): 0.5 | FICI, catechaldehyde (E. coli CFT073 [5]; [15]): 0.31* | FICI, catechol (E. coli CFT073 [5]; [16]): 0.31* | FICI, gallic acid (E. coli CFT073 [5]; [17]): 0.75 | FIC, catechaldehyde (E. coli CFT073 [5]; [18]): 0.25 | FIC, catechol (E. coli CFT073 [5]; [19]): 0.25 | FIC, gallic acid (E. coli CFT073 [5]; [20]): 0.5 | FICI (E. coli CFT073 [5]; [21]): 0.75 | FIC of compound (E. coli CFT073 [5]; [22]): 0.25 | FIC of ciprofloxacin (P. mirabilis HI4320 [6]; [14]): 0.5 | FICI, catechaldehyde (P. mirabilis HI4320 [6]; [15]): 0.75 | FICI, catechol (P. mirabilis HI4320 [6]; [16]): 0.75 | FICI, gallic acid (P. mirabilis HI4320 [6]; [17]): 1 | FIC, catechaldehyde (P. mirabilis HI4320 [6]; [18]): 0.25 | FIC, catechol (P. mirabilis HI4320 [6]; [19]): 0.25 | FIC, gallic acid (P. mirabilis HI4320 [6]; [20]): 0.5 | FICI (P. mirabilis HI4320 [6]; [21]): 1 | FIC of compound (P. mirabilis HI4320 [6]; [22]): 0.5 | FIC of ciprofloxacin (P. aeruginosa PA14 [7]; [14]): 0.5 | FICI, catechaldehyde (P. aeruginosa PA14 [7]; [15]): 1 | FICI, catechol (P. aeruginosa PA14 [7]; [16]): 1 | FICI, gallic acid (P. aeruginosa PA14 [7]; [17]): 0.63 | FIC, catechaldehyde (P. aeruginosa PA14 [7]; [18]): 0.5 | FIC, catechol (P. aeruginosa PA14 [7]; [19]): 0.5 | FIC, gallic acid (P. aeruginosa PA14 [7]; [20]): 0.13 | FICI (P. aeruginosa PA14 [7]; [21]): 0.75 | FIC of compound (P. aeruginosa PA14 [7]; [22]): 0.25 | FIC of ciprofloxacin (P. aeruginosa PAO1 [8]; [14]): 1 | FICI, catechaldehyde (P. aeruginosa PAO1 [8]; [15]): 0.5* | FICI, catechol (P. aeruginosa PAO1 [8]; [16]): 0.5* | FICI, gallic acid (P. aeruginosa PAO1 [8]; [17]): 1 | FIC, catechaldehyde (P. aeruginosa PAO1 [8]; [18]): 0.25 | FIC, catechol (P. aeruginosa PAO1 [8]; [19]): 0.25 | FIC, gallic acid (P. aeruginosa PAO1 [8]; [20]): 0.5 | FICI (P. aeruginosa PAO1 [8]; [21]): 2 | FIC of compound (P. aeruginosa PAO1 [8]; [22]): 1 | FICIs of pairs with gallic acid [12]: 0.63-1.0
